We go through four molecules from US12622914B2, “Pharmaceutical rectal suppository compositions of 6-thioguanine, methods of treatment and/or methods of manufacturing” (Douglas Pharmaceuticals Ltd., priority 2023, dated 2026).

In series [1] the test system is induced colitis. Conditions: mice lacking the enzyme HPRT, treatment with 6-thioguanine; cited from earlier work.
A short description of series [2]: Particle size distribution (Malvern Mastersizer 3000). Conditions: dispersed in n-heptane containing 0.1% span 80 pre-saturated with 6-thioguanine. Type of series: physicochemical. Here is the method:
The particles size distribution of the API alone and in the rectal suppository formulations was measured using a Malvern Mastersizer 3000 (Hydro SM). The samples were dispersed in n-heptane containing 0.1% span 80 pre-saturated with 6-thioguanine (to reduce any dissolution of the 6-thioguanine particles in the samples).

In the case of `Nc1nc(=S)c2[nH]cnc2[nH]1` [6-thioguanine, 2-amino-1H-purine-6(7H)-thione], the “reduction in induced colitis” value in series [1] was “rapid and appreciable reduction in induced colitis”.
As to `Nc1nc(=S)c2[nH]cnc2[nH]1` [B, 6-thioguanine], in series [2], the D10 is given as 5.3 μm, the D50 came out at 69.1 μm and the D90 was 267.0 μm.
The like results for `Nc1nc(=S)c2[nH]cnc2[nH]1` [Sample A, 6-thioguanine] were, in that order, 5.4 μm, 66.8 μm and 261.0 μm.
In series [2], `Nc1nc(=S)c2[nH]cnc2[nH]1` [Sample C, 6-thioguanine] displayed a D10 of 2.9 μm, a D50 of 9.0 μm and a D90 of 151.0 μm. Moreover, in series [2] (listed as Batch C), the D10 is recorded as 2.9 μm, the D50 was 9.0 μm and the D90 is given as 151.0 μm.
